Data: patent US20180110796A1, “COMPOSITIONS AND METHODS FOR THE TREATMENT OF HBV INFECTION” (Spring Bank Pharmaceuticals, Inc., priority 2015, published 2018)

How the values were obtained:
[1] = tested on: woodchuck hepatitis virus (WHV); assay: Antiviral efficacy of oral Formula (IIa) in chronic WHV carrier woodchucks (Example 2); format: in vivo, woodchuck (Marmota monax); conditions: for weeks per approximately 1 log10 decline of serum WHV DNA: 12-week treatment; for average reduction of serum WHV DNA at the end of treatment: week 12, vs T0; for maximum reduction of hepatic WHV DNA RI from pretreatment level / maximum reduction of hepatic WHV RNA from pretreatment level / maximum reduction of hepatic WHV cccDNA from pretreatment level: after 12 weeks; for maximum reduction of serum WHsAg: after 12 weeks of treatment
[2] = Tolerability / drug safety of oral Formula (IIa) in chronic WHV carrier woodchucks (Example 2); format: in vivo, woodchuck (Marmota monax)
Source text: All woodchucks used in this study were born in captivity and infected at 3 days of age with the cWHV7P2a inoculum containing WHV strain 7-11 (WHV7). cWHV7P2a has the same biological and virological characteristics as the parent cWHV7P2 inoculum as both were derived from cWHV7P1. Chronically infected animals were confirmed positive for serum WHV DNA and WHV surface antigen (WHsAg) and had undetectable antibodies against WHsAg (anti-WHs) at approximately 1 year post-infection. Absence of liver tumors in woodchucks with low gamma-glutamyl transferase (GGT) was confirmed by ultrasonography. Chronic WHV carrier woodchucks were assigned and stratified by gender, body weight, and by pretreatment serum markers (WHV DNA and WHsAg loads and serum GGT and sorbitol-dehydrogenase (SDH) levels) into two groups (n=5 each). Woodchucks were treated daily, orally with either a low (15 mg/kg) or high dose (30 mg/kg) of Formula (IIa) for 12 weeks. For select assays, blood and liver samples from five age-matched chronic WHV carrier woodchucks were included for comparison of basal expression levels of immune response genes in untreated animals with pretreated levels in Formula (IIa) treated animals.
Various measurements (body weight, body temperature, clinical chemistry, and hematology) were obtained weekly to monthly throughout the study to monitor drug safety. Serum and hepatic WHV parameters, host immune response parameters, and drug safety parameters were compared to the values at pretreatment and between both dose groups using unpaired Student's t-test with equal variance. P values of <0.05 were considered statistically significant.

[3] = Plasma levels by LC-MS after oral Formula (IIa) (Example 2); format: in vivo, woodchuck (Marmota monax); conditions: 15 and 30 mg/kg oral, approximately 2 hours post-dose
Procedure: Plasma levels of Formula (Ia) were evaluated at pretreatment (T0) and then bi-weekly throughout the study at approximately 2 hours post-dose. Woodchuck plasma was analyzed by LC-MS and quantified using isotopically enriched internal standards.

[4] = tested on: wild type HBV or resistant variants of HBV (polymerase M204V, M204I, L180M, L180M/M204V, N236T); assay: Antiviral assays in cells chronically infected with wild type HBV or resistant variants (Example 4); format: cell-based; conditions: added to the cells daily for nine consecutive days
Procedure: Antiviral assays were carried out in cells chronically infected with resistant variants of HBV. In order to gauge the efficacy of Formula (IIa) and the antiviral nucleoside analogs lamivudine (3TC) and adefovir dipivoxil (ADV) against the tested strains, the in vitro activity (EC50, μM) was determined using six different cell samples chronically infected with HBV. Each cell sample was infected with either wild type HBV or a resistant variant of HBV, wherein the resistant variants comprise mutations in the HBV polymerase (P) at the following amino acid positions: M204V, M204I, L180M, L180M/M204V, and N236T. In each assay, Formula (IIa), 3TC, or ADV was added to the cells daily for nine consecutive days.

[5] = tested on: HBV-infected primary human hepatocytes; assay: In vitro studies using HBV-infected primary human hepatocytes; format: cell-based
Source text: (§1) During viral infections, virus-derived nucleic acids (both DNA and RNA) are mainly sensed by certain pattern-recognition receptors such as RIG-1 and NOD2 which are located within the cytoplasm of cells, including hepatocytes. Binding of these viral sensor proteins to PAMP within the viral nucleic acids activates downstream signaling pathways which include the mitochondrial antiviral signaling protein (MAVS) leading to the induction of the IFN-regulatory factor-3 (IRF-3) and NF-κB dependent gene expression, and the subsequent production of type I and type III IFNs and inflammatory cytokines. Thus, sensing of viral nucleic acids is a crucial process to induce antiviral innate immune responses for limiting viral replication and for activation of adaptive immunity. For HBV it has been recently shown that RIG-1 sensing is mediated through recognition of the 5′-end ϵ region of the HBV pg RNA which leads to the induction of type III rather than type I IFNs in human primary hepatocytes in response to in vitro infection. In addition, activated RIG-1 is able to counter-act the interaction of the HBV polymerase protein with the HBV pgRNA in an IFN pathway independent manner resulting in suppressed viral replication. […]

[6] = tested on: HCV, Norovirus and RSV; assay: In vitro and in vivo studies against RNA viruses
Source text: as §1

[7] = 15 and 30 mg/kg, all treated woodchucks
[8] = 15 and 30 mg/kg daily oral, 12 weeks

With `COC1[C@@H](OP(=O)(OC[C@H]2O[C@@H](n3cnc4c(N)ncnc43)C[C@H]2O)SCOC(=O)OC(C)C)[C@@H](CO)O[C@H]1n1ccc(=O)[nH]c1=O` (stereo partly drawn) [Formula (IIa)] the “seroconversion to anti-WHs antibodies and anti-WHe antibodies” value ([1]; 15 and 30 mg/kg, 12 weeks) was “not observed”, the “hepatic expression scores of cytoplasmic WHcAg from pretreatment level” value [1, 7] was “dose-dependent, transient reductions” and the “scores of liver inflammation during the 12-week treatment period” value [1, 7] was “unchanged or even reduced”. The “delay in WHsAg rebound, high dose versus low dose” value ([1]; high dose 30 mg/kg) was 1-7 week, the “delay in relapse of serum WHV DNA, high dose versus low dose” value ([1]; high dose 30 mg/kg) was 2-4 weeks and the “time for serum WHV DNA to return to pretreatment level after withdrawal” value ([1]; high dose 30 mg/kg) was 5-7 weeks. The “time for serum WHsAg to return to pretreatment level after the end of treatment” value ([1]; high dose 30 mg/kg) was 6-8 weeks, the “weeks per approximately 1 log10 decline of serum WHV DNA” value ([1]; high dose 30 mg/kg daily oral) was about 3 weeks and the “average reduction of serum WHV DNA at the end of treatment” value ([1]; high dose 30 mg/kg daily oral) was 3.7 log10. For the same molecule, the “maximum reduction of hepatic WHV DNA RI from pretreatment level” value ([1]; high dose 30 mg/kg) was 38%, the “maximum reduction of hepatic WHV RNA from pretreatment level” value ([1]; high dose 30 mg/kg) was 45% and the “maximum reduction of hepatic WHV cccDNA from pretreatment level” value ([1]; high dose 30 mg/kg) was 25%. For the same molecule, the “maximum reduction of serum WHsAg” value ([1]; high dose 30 mg/kg) was 1.6 log10, the “time for serum WHV DNA to return to pretreatment level after withdrawal” value ([1]; low dose 15 mg/kg) was 3-5 weeks and the “time for serum WHsAg to return to pretreatment level after completion of treatment” value ([1]; low dose 15 mg/kg) was 1-5 weeks. The “weeks per approximately 1 log10 decline of serum WHV DNA” value ([1]; low dose 15 mg/kg daily oral) was about 6 weeks, the “average reduction of serum WHV DNA at the end of treatment” value ([1]; low dose 15 mg/kg daily oral) was 2.2 log10 and the “maximum reduction of hepatic WHV DNA RI from pretreatment level” value ([1]; low dose 15 mg/kg) was 19%. For the same molecule, the “maximum reduction of hepatic WHV RNA from pretreatment level” value ([1]; low dose 15 mg/kg) was 22%, the “maximum reduction of hepatic WHV cccDNA from pretreatment level” value ([1]; low dose 15 mg/kg) was 16% and the “maximum reduction of serum WHsAg” value ([1]; low dose 15 mg/kg) was 0.5 log10. The “mortality during the study” value [2, 8] was “no mortality”, the “tolerability (gross observations, body weights, body temperatures, hematology, clinical chemistry)” value [2, 8] was “well-tolerated” and the “serum levels of ALT and AST during and following treatment” value ([2]; both dose groups) was “essentially remained unchanged or declined slightly”. For the same molecule, the “serum SDH levels during administration” value ([2]; especially initial 4-8 weeks, more pronounced in the high dose group) was “trend towards elevated”, the “plasma exposure following oral administration” value [3] was “dose-dependent” and the “efficacy against cells infected with wild type and resistant HBV strains (in vitro activity, FIG. 31)” value [4] was “efficacious against cells infected with all the HBV strains tested”. For the same molecule, the “HBV DNA levels” value [5] was “significant reduction”, the “secreted HBsAg and HBV e antigen (HBeAg)” value ([5]; similar to IFN-α treatment) was “declines” and the “antiviral activity against RNA viruses including HCV, Norovirus and RSV” value [6] was “potent antiviral activity”.
